We go through six compounds from article PMC3335879, “Selective Inhibitors of Protozoan Protein N-myristoyltransferases as Starting Points for Tropical Disease Medicinal Chemistry Programs” (PLoS Neglected Tropical Diseases, 2012).

Where two headings read alike, the source gives them in different places.

One assay has as its target T1, HsNMT1 (Homo sapiens, UniProt P30419).
T1 construct: made in house
T1 sequence (P30419 1-496): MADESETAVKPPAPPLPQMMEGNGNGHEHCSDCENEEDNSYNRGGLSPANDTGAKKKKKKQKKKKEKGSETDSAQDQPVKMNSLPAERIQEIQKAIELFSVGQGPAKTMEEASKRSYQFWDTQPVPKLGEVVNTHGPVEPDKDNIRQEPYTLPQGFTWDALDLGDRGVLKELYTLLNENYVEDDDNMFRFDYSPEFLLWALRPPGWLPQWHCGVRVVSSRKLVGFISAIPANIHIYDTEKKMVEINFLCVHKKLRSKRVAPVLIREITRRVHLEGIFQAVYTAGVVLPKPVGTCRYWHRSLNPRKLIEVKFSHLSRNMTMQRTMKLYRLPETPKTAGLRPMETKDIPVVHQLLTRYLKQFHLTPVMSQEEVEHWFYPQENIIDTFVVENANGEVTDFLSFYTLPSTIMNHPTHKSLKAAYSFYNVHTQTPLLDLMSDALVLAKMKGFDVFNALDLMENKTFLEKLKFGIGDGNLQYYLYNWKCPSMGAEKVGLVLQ
In words: Human NMT1 scintillation proximity dose-response assay. The format is biochemical. Particulars: Table 2; single determination; read-out: Hs1 IC50. A general note: Scintillation proximity formats need no separation of bound from free tracer.

The target of another assay is T2, P. falciparum NMT (Plasmodium falciparum, UniProt Q8ILW6).
T2 construct: made in house
T2 sequence (Q8ILW6 1-410): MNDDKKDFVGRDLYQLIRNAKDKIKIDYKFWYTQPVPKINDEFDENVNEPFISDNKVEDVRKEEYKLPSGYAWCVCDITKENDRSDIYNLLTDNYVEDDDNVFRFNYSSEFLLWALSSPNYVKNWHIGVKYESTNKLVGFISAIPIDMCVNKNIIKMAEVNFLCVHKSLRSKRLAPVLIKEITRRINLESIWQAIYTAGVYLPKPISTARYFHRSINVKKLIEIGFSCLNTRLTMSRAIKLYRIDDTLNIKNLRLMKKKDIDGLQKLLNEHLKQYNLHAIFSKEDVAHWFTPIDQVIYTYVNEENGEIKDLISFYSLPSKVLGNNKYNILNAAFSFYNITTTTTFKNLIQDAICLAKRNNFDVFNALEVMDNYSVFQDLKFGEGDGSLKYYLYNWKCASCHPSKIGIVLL
In words: biochemical. Particulars: for Pfal LE: ligand efficiency calculated from Pfal NMT IC50; for Pfal/Ldon Sel: selectivity for Pfal NMT over Ldon NMT derived from IC50 values. On the procedure:
Recombinant P. falciparum (Swiss-Prot Q81LW6) and L. donovani NMTs (EMBL accession number FN555136) were produced at the University of York, using established protocols. An assay format based on scintillation proximity technology to monitor enzyme activity was used as previously described, [30]. […]
(§1) The reaction was initiated by adding 10 µL of the substrate mixture to each well containing the pre-incubated enzyme/compound mixture, and allowed to proceed at RT for 80 min. The reaction was quenched by the addition 20 µl of stop solution to each well. Stop solution consisted of 0.75 M MgCl2 (Sigma), 0.1 M phosphoric acid (Sigma) and 1 mg/ml of streptavidin-coated polystyrene SPA beads (Perkin-Elmer). Plates were sealed using topseals (Perkin-Elmer) and left overnight to allow the bead solution to settle. Radioactive counts were measured with an integration time of 300 sec per plate using the Leadseeker Generation 4 plate reader (GE Healthcare). Each plate included a positive control of 1 µM final assay concentration of DDD85646 [22] and 1% DMSO as a negative control. […] The data were analysed using Pfizer SIGHTS software and visualised using Spotfire software (TIBCO).

For the next assay, the target named is L. donovani NMT (Leishmania donovani, UniProt D0AB09). The experiment in a line: biochemical. Particulars: for Ldon LE: ligand efficiency calculated from Ldon NMT IC50. On the procedure:
Recombinant P. falciparum (Swiss-Prot Q81LW6) and L. donovani NMTs (EMBL accession number FN555136) were produced at the University of York, using established protocols. An assay format based on scintillation proximity technology to monitor enzyme activity was used as previously described, [30].
The Pfizer Global Diverse Representative Set consisting of 150,000 compounds was screened at 20 µM final assay concentration. Assay plates were prepared by dispensing 0.1 µL of compound dissolved in DMSO using the Vario system (Cybio) into white 384-well plates (Greiner Bio-One).
as §1

For the next assay, the target named is T3, T brucei NMT (Trypanosoma brucei brucei, UniProt Q388H8).
T3 construct: made in house
T3 sequence (Q388H8 1-446): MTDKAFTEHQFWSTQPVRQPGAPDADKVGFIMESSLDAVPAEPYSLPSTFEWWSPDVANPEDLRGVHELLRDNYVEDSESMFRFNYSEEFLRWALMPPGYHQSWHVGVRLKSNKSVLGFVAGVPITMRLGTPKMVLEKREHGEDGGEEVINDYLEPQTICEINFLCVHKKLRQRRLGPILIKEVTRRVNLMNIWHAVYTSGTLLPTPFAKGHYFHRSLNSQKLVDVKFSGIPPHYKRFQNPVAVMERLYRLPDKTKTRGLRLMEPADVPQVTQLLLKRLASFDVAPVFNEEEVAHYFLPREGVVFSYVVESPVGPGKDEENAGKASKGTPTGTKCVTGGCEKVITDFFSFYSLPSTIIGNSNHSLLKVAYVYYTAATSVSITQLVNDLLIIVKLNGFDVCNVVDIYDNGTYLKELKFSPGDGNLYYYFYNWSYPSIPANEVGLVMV
In words: T. brucei NMT scintillation proximity dose-response assay. The format is biochemical.

A further assay addresses T4, HsNMT2 (Homo sapiens, UniProt O60551).
T4 construct: made in house
T4 sequence (O60551 1-498): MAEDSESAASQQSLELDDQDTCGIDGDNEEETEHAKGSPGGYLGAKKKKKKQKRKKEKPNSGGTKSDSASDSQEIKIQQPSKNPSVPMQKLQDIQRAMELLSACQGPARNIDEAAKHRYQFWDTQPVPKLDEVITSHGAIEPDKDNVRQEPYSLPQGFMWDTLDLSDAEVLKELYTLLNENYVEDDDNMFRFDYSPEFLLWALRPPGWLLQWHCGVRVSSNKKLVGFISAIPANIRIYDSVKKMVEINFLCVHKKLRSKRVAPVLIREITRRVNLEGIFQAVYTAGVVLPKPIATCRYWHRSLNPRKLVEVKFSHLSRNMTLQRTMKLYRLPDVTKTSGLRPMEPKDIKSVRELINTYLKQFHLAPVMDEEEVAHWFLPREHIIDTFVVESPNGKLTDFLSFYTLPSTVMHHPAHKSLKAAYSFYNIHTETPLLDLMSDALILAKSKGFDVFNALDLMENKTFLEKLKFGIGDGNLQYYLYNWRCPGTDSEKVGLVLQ
The experiment in a line: Human NMT2 scintillation proximity dose-response assay. Particulars: Table 2; single determination; read-out: Hs2 IC50. The format is biochemical.

Setting [1] is: Table 1, mean of 3 separate experiments, top concentration 80 µM, read-out: Pfal IC50.
The mark [2] stands for this setting: Table 2, mean of 3 determinations, read-out: Pfal IC50.
Setting [3] is: Table 1, mean of 3 separate experiments, top concentration 80 µM, read-out: Ldon IC50.
Setting [4] is: Table 2, mean of 3 determinations, read-out: Ldon IC50.
Setting [5] is: Table 2, single determination, read-out: Tb IC50.
Where [6] appears, read: Ldon IC50, Table 1, mean of 3 separate experiments, top concentration 80 µM.
[7] abbreviates: Ldon IC50, Table 2, mean of 3 determinations.

L. donovani NMT, sequence (D0AB09 entry or part of it): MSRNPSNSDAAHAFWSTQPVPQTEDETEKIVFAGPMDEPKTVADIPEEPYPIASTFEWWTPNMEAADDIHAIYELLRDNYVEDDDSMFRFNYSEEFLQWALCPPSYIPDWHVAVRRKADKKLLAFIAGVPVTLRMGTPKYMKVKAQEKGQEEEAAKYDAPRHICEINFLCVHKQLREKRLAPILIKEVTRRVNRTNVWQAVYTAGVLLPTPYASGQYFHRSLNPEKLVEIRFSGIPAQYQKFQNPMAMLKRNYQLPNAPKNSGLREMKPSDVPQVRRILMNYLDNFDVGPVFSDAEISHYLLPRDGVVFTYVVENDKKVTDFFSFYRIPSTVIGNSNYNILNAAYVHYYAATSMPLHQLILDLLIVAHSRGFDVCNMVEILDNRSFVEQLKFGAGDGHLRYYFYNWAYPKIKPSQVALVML

By IC50 is commonly meant the concentration that inhibits the measured activity by half. Consider `CNCC(=O)N1CC[C@@H](NC(=O)c2ccccc2C(F)(F)F)C1` [CP-854190], for which the IC50 on HsNMT1 was 0.57 µM; on P. falciparum NMT (setting [1]) it was 1720 nM; on P. falciparum NMT (setting [2]) it was 1720 nM; on L. donovani NMT (setting [3]), 38700 nM; at L. donovani NMT (setting [4]), 38700 nM; at T brucei NMT (setting [5]) it was more than 80 µM. The concentration for half-maximal inhibition (IC50) at HsNMT2 is 1.59 µM. Besides, the “Pfal LE” value at P. falciparum NMT is 0.34. The “Pfal/Ldon Sel” value on P. falciparum NMT is 22.5.
With `c1cncc(CCNCc2cccc(-c3cccc(CN4CCc5ncsc5C4)c3)c2)c1` [PF-00075634], the half-inhibitory concentration (IC50) on HsNMT1 is 36.1 µM; on P. falciparum NMT (setting [1]) it was more than 80000 nM; at P. falciparum NMT (setting [2]) it was more than 80000 nM; on L. donovani NMT (setting [3]) it was 158 nM; at L. donovani NMT (setting [4]) it was 160 nM; at T brucei NMT (setting [5]), more than 80 µM. Further, the half-inhibitory concentration (IC50) on HsNMT2 turned out to be 26.7 µM. For the same compound, on L. donovani NMT, the “Ldon LE” value is 0.29.
Consider `Cc1cc2nc(N(C)C3CCN(C)CC3)nc(N(C)CCC#N)c2s1` [PF-00349412], for which the IC50 at HsNMT1 was determined as 9 µM; against P. falciparum NMT it was 39600 nM; against L. donovani NMT (setting [6]) it was 482 nM; on L. donovani NMT (setting [7]) it was 480 nM; at T brucei NMT, 56.2 µM; at HsNMT2 it was 11.5 µM. For the same compound, the “Ldon LE” value at L. donovani NMT was 0.34.
For `NC(CC(=O)N1CC(CO)C(c2ccc(Cl)cc2)C1)Cc1ccc(Cl)cc1` (centres unmarked) [PF-03402623], the IC50 at HsNMT1 was determined as 5.2 µM; on P. falciparum NMT (setting [1]), 71900 nM; at P. falciparum NMT (setting [2]), 71900 nM; on L. donovani NMT (setting [3]) it was 93 nM; at L. donovani NMT (setting [4]) it was 93 nM; on T brucei NMT (setting [5]) it was 1.5 µM. In addition, the IC50 at HsNMT2 stood at 14.7 µM. Further, the “Ldon LE” value on L. donovani NMT was 0.35.
For the compound `Cc1cnc(CNC(=O)C2CN(c3nc(NCCN(C)C)ncc3Cl)C2)cn1` [PF-03531814], the IC50 is 70 µM on HsNMT1; 482 nM on P. falciparum NMT (setting [1]); 480 nM at P. falciparum NMT (setting [2]); 72000 nM on L. donovani NMT (setting [3]); 72000 nM at L. donovani NMT (setting [4]); more than 80 µM on T brucei NMT (setting [5]). In addition, on HsNMT2, the half-inhibitory concentration (IC50) came out at 76 µM. On P. falciparum NMT, the “Pfal LE” value is recorded as 0.31. Also, the “Pfal/Ldon Sel” value at P. falciparum NMT turned out to be 150.
For the compound `Cn1c(CN2CCC(c3cc(F)cc(F)c3)CC2)nc2cc(Cl)ccc21` [PF-03665853], the IC50 on HsNMT1 was 0.51 µM; on P. falciparum NMT (setting [1]) it was 910 nM; on P. falciparum NMT (setting [2]) it was 910 nM; on L. donovani NMT (setting [6]), more than 80000 nM; against L. donovani NMT (setting [7]), more than 80000 nM; at T brucei NMT (setting [5]), 35.4 µM. In addition, the IC50 at HsNMT2 stood at 0.56 µM. In addition, the “Pfal LE” value at P. falciparum NMT is 0.32. Moreover, the “Pfal/Ldon Sel” value on P. falciparum NMT is more than 88.
